From ChEMBL document CHEMBL4376803, “Recent Advances in the Exploration of Therapeutic Analogues of Gramicidin S, an Old but Still Potent Antimicrobial Peptide” (J Med Chem, 2019)
In brackets after ≈: the same amount, converted by molar mass. Values belong to the compound of their own block, whether it stands above or below them. Square brackets hold non-standard residues; d marks the D form. Peptide text beside a SMILES is read from it.

Columns and labels:
Priestia megaterium = experiment: Antibacterial activity against Bacillus megaterium ATCC 19213 after overnight incubation by microplate dilution method; type: functional
Staphylococcus aureus [1] = experiment: Antibacterial activity against Staphylococcus aureus NBRC 12732 after overnight incubation by microplate dilution method; type: functional
[2] = Hemolytic activity in sheep RBC incubated for 30 mins; type: ADME, cell-based, Ovis aries, Erythrocyte; conditions: sheep red blood cells
Bacillus subtilis = experiment: Antibacterial activity against Bacillus subtilis NBRC 3513 after overnight incubation by microplate dilution method; type: functional
Escherichia coli [3] = experiment: Antibacterial activity against Escherichia coli NBRC 12734 after overnight incubation by microplate dilution method; type: functional
Pseudomonas aeruginosa [4] = experiment: Antibacterial activity against Pseudomonas aeruginosa NBRC 3080 after overnight incubation by microplate dilution method; type: functional
Enterococcus faecalis [5] = experiment: Antibacterial activity against Enterococcus faecalis ATCC 29212 after 24 hrs; type: functional; conditions: ATCC 29212, 24 h
Staphylococcus aureus [6] = experiment: Antibacterial activity against methicillin-resistant Staphylococcus aureus NT 1110301981H-T034-PVL+ incubated for 24 hrs; type: functional
Pseudomonas aeruginosa [7] = experiment: Antibacterial activity against Pseudomonas aeruginosa ATCC 27853 incubated for 24 hrs; type: functional; conditions: ATCC 27853, 24 h
Escherichia coli [8] = experiment: Antibacterial activity against Escherichia coli ATCC 25922 after 24 hrs; type: functional; conditions: ATCC 25922, 24 h
Staphylococcus aureus [9] = experiment: Antibacterial activity against Staphylococcus aureus ATCC 29213 after 24 hrs; type: functional; conditions: ATCC 29213, 24 h
[10] = Haemolytic activity in human erythrocytes incubated for 30 mins; type: ADME, cell-based, Erythrocyte
Escherichia coli [11] = experiment: Antibacterial activity against Escherichia coli K-12 strain W3110 incubated for 20 hrs by liquid microdilution method; type: functional; conditions: K-12 substr. W3110, 20 h
Staphylococcus aureus [12] = experiment: Antibacterial activity against Staphylococcus aureus 209P incubated for 20 hrs by liquid microdilution method; type: functional
Escherichia coli [13] = experiment: Antibacterial activity against Escherichia coli ATCC 25922 after overnight incubation; type: functional
Staphylococcus aureus [14] = experiment: Antibacterial activity against Staphylococcus aureus ATCC 29213 after overnight incubation; type: functional
Enterococcus faecalis [15] = experiment: Antibacterial activity against Enterococcus faecalis ATCC 29212 after overnight incubation; type: functional
Pseudomonas aeruginosa [16] = experiment: Antibacterial activity against Pseudomonas aeruginosa ATCC 19582 after 24 hrs by broth dilution method; type: functional; conditions: ATCC 19582, 24 h
[17] = Hemolytic activity against RBC (unknown origin) at 100 ul after 4 hrs; type: ADME, cell-based, Erythrocyte; conditions: red blood cells (unknown origin)
Enterococcus faecalis [18] = experiment: Antibacterial activity against Enterococcus faecalis 1131 after 24 hrs by broth dilution method; type: functional; conditions: Enterococcus faecalis, 1131, 24 h
Escherichia coli [19] = experiment: Antibacterial activity against Escherichia coli ATCC 25922 after 24 hrs by broth dilution method; type: functional; conditions: ATCC 25922, 24 h
Staphylococcus aureus [20] = experiment: Antibacterial activity against Staphylococcus aureus 7323; type: functional
[21] = Therapeutic index, ratio of HD100 for hemolytic activity in human RBC to MIC against Staphylococcus aureus K147; type: toxicity; conditions: human red blood cells, read-out: TI
Lipopolysaccharide (LPS) = experiment: Displacement of Dansyl-polymyxin from Pseudomonas aeruginosa LPS by fluorescence method; conditions: read-out: I50
Escherichia coli [22] = experiment: Antibacterial activity against Escherichia coli UB1005 after overnight incubation by microtiter dilution method; type: functional
[23] = Therapeutic index, ratio of HD100 for hemolytic activity in human RBC to MIC against Enterococcus faecalis ATCC 29212; type: toxicity; conditions: human red blood cells, read-out: TI
Candida albicans = experiment: Antibacterial activity against Candida albicans after overnight incubation by microtiter dilution method; type: functional
Pseudomonas aeruginosa [24] = experiment: Antibacterial activity against Pseudomonas aeruginosa H187 after overnight incubation by microtiter dilution method; type: functional
[25] = Therapeutic index, ratio of HD100 for hemolytic activity in human RBC to MIC against Escherichia coli UB1005; type: toxicity; conditions: human red blood cells, read-out: TI
Staphylococcus aureus [26] = experiment: Antibacterial activity against Staphylococcus aureus K147 after overnight incubation by microtiter dilution method; type: functional
[27] = Therapeutic index, ratio of HD100 for hemolytic activity in human RBC to MIC against Pseudomonas aeruginosa H187; type: toxicity; conditions: human red blood cells, read-out: TI
Erythrocyte = experiment: Haemolytic activity in human RBC after 4 hrs by visual method; type: ADME, cell-based
Enterococcus faecalis [28] = experiment: Antibacterial activity against Enterococcus faecalis ATCC 29212 after overnight incubation by microtiter dilution method; type: functional

Structure (SMILES): CC(C)C[C@@H]1NC(=O)[C@H](CCCN)NC(=O)[C@H](C(C)C)NC(=O)[C@@H]2CCCN2C(=O)[C@@H](Cc2ccccc2)NC(=O)[C@H](CC(C)C)NC(=O)[C@H](CCCN)NC(=O)[C@H](C(C)C)NC(=O)[C@@H]2CCCN2C(=O)NC(=O)[C@H](Cc2ccccc2)NC(=O)[C@H](CCCCN)NC1=O
- MIC (Priestia megaterium): 3.13 µg/mL (≈ 2.38 µM)
- MIC (Staphylococcus aureus [1]): 3.13 µg/mL (≈ 2.38 µM)
- HC50 at 0.5 h [2]: > 100 µg/mL
- MIC (Bacillus subtilis): 3.13 µg/mL (≈ 2.38 µM)
- MIC (Escherichia coli [3]): 25 µg/mL (≈ 19 µM)
- MIC (Pseudomonas aeruginosa [4]): 100 µg/mL (≈ 76.2 µM)

Structure (SMILES): NCCC[C@@H]1NC(=O)[C@H](C23CC4CC(CC(C4)C2)C3)NC(=O)[C@H](CCCN)NC(=O)[C@@H]2CCCN2C(=O)[C@@H](Cc2ccccc2)NC(=O)[C@H](CCCN)NC(=O)[C@H](C23CC4CC(CC(C4)C2)C3)NC(=O)[C@H](CCCN)NC(=O)[C@@H]2CCCN2C(=O)[C@@H](Cc2ccccc2)NC1=O
- MIC (Enterococcus faecalis [5]): 8 µg/mL (≈ 6.03 µM)
- MIC (Staphylococcus aureus [6]): 8 µg/mL (≈ 6.03 µM)
- MIC (Pseudomonas aeruginosa [7]): 16 µg/mL (≈ 12.1 µM)
- MIC (Escherichia coli [8]): 8 µg/mL (≈ 6.03 µM)
- MIC (Staphylococcus aureus [9]): 8 µg/mL (≈ 6.03 µM)

Structure (SMILES): CC(C)C[C@@H]1NC(=O)[C@H](CCCN)NC(=O)[C@H](C(C)C)NC(=O)[C@@H]2C[C@@H](N[C@@H](CCCCN)C(=O)O)CN2C(=O)[C@@H](Cc2ccccc2)NC(=O)[C@H](CC(C)C)NC(=O)[C@H](CCCN)NC(=O)[C@H](C(C)C)NC(=O)[C@@H]2C[C@@H](N[C@@H](CCCCN)C(=O)O)CN2C(=O)[C@@H](Cc2ccccc2)NC1=O [listing 1 of 2 here]
- HC50 at 0.5 h [10]: > 100 µg/mL

Structure (SMILES): NCCC[C@@H]1NC(=O)[C@H](C23CC4CC(CC(C4)C2)C3)NC(=O)[C@@H]2CCCN2C(=O)[C@@H](Cc2ccccc2)NC(=O)[C@H](C23CC4CC(CC(C4)C2)C3)NC(=O)[C@H](CCCN)NC(=O)[C@H](C23CC4CC(CC(C4)C2)C3)NC(=O)[C@@H]2CCCN2C(=O)[C@@H](Cc2ccccc2)NC(=O)[C@H](C23CC4CC(CC(C4)C2)C3)NC1=O
- MIC (Enterococcus faecalis [5]): > 64 µg/mL
- MIC (Pseudomonas aeruginosa [7]): > 64 µg/mL
- MIC (Escherichia coli [8]): > 64 µg/mL
- MIC (Staphylococcus aureus [9]): > 64 µg/mL

Structure (SMILES): CC(C)C[C@@H]1NC(=O)[C@H](CCCN)NC(=O)[C@H](C(C)C)NC(=O)[C@H](CCCCN)NC(=O)[C@@H](Cc2ccccc2)NC(=O)[C@H](CC(C)C)NC(=O)[C@@H](CCCN)NC(=O)[C@H](C(C)C)NC(=O)[C@H](CCCCN)NC(=O)[C@@H](Cc2ccccc2)NC1=O
- MIC (Priestia megaterium): 3.13 µg/mL (≈ 2.6 µM)
- MIC (Staphylococcus aureus [1]): 3.13 µg/mL (≈ 2.6 µM)
- HC50 at 0.5 h [2]: > 200 µg/mL
- MIC (Bacillus subtilis): 6.25 µg/mL (≈ 5.19 µM)
- MIC (Escherichia coli [3]): 25 µg/mL (≈ 20.8 µM)
- MIC (Pseudomonas aeruginosa [4]): 50 µg/mL (≈ 41.5 µM)

Structure (SMILES): CC(C)C[C@@H]1NC(=O)[C@H](CCCN)NC(=O)[C@H](C(C)C)NC(=O)[C@@H]2CCCN2C(=O)[C@@H](Cc2c[nH]cn2)NC(=O)[C@H](CC(C)C)NC(=O)[C@@H](CCCN)NC(=O)[C@H](C(C)C)NC(=O)[C@@H]2CCCN2C(=O)[C@@H](Cc2ccccc2)NC1=O
- MIC (Pseudomonas aeruginosa [16]): 16 µg/mL (≈ 14.1 µM)
- HC50 at 4 h [17]: 90 to 110 µg/mL
- MIC (Enterococcus faecalis [18]): 16 µg/mL (≈ 14.1 µM)
- MIC (Escherichia coli [19]): 8 µg/mL (≈ 7.07 µM)
- MIC (Staphylococcus aureus [20]): 4 µg/mL (≈ 3.54 µM)

Structure (SMILES): CC(C)C[C@@H]1NC(=O)[C@H](CCCCN)NC(=O)[C@H](C(C)C)NC(=O)[C@@H]2CCCN2C(=O)[C@@H](Cc2ccc(O)cc2)NC(=O)[C@H](CC(C)C)NC(=O)[C@H](CCCCN)NC(=O)[C@H](C(C)C)NC(=O)[C@H](CCCCN)NC(=O)[C@H](CC(C)C)NC(=O)[C@@H]2CCCN2C(=O)[C@@H](Cc2ccc(O)cc2)NC(=O)[C@H](C(C)C)NC(=O)[C@H](CCCCN)NC1=O (cyclo(KLKV[dY]PLKVKL[dY]PV))
- selectivity ratio [21]: < 0.01
- IC50 (Lipopolysaccharide (LPS)): 3000 nM
- MIC (Escherichia coli [22]): > 200 µg/mL
- selectivity ratio [23]: 0.7
- MIC (Candida albicans): 175 µg/mL (≈ 105 µM)
- MIC (Pseudomonas aeruginosa [24]): > 200 µg/mL
- selectivity ratio [25]: < 0.01
- MIC (Staphylococcus aureus [26]): > 200 µg/mL
- selectivity ratio [27]: < 0.01
- HD100 (Erythrocyte): 1.5 µg/mL
- MIC (Enterococcus faecalis [28]): 2.3 µg/mL (≈ 1.38 µM)

The next lines start with results.

- MIC (Escherichia coli [11]): 16 µg/mL (≈ 11.2 µM)
- MIC (Staphylococcus aureus [12]): 8 µg/mL (≈ 5.6 µM)
Structure (SMILES): CC(C)C[C@@H]1NC(=O)[C@H](CCCN)NC(=O)[C@H](C(C)C)NC(=O)[C@@H]2C[C@@H](N[C@@H](CCCCN)C(=O)O)CN2C(=O)[C@@H](Cc2ccccc2)NC(=O)[C@H](CC(C)C)NC(=O)[C@H](CCCN)NC(=O)[C@H](C(C)C)NC(=O)[C@@H]2C[C@@H](N[C@@H](CCCCN)C(=O)O)CN2C(=O)[C@@H](Cc2ccccc2)NC1=O [listing 2 of 2 here]

- MIC (Escherichia coli [13]): 64 µg/mL (≈ 47.3 µM)
- MIC (Staphylococcus aureus [14]): 8 µg/mL (≈ 5.91 µM)
- MIC (Enterococcus faecalis [15]): 8 µg/mL (≈ 5.91 µM)
Structure (SMILES): CC(C)C[C@@H]1NC(=O)[C@H](CCCN)NC(=O)[C@H](C(C)C)NC(=O)[C@@H]2CCCN2C(=O)[C@@H](Cc2ccc(OCc3ccccc3)cc2)NC(=O)[C@H](CC(C)C)NC(=O)[C@@H](CCCN)NC(=O)[C@H](C(C)C)NC(=O)[C@@H]2CCCN2C(=O)[C@@H](Cc2ccc(OCc3ccccc3)cc2)NC1=O

- MIC (Priestia megaterium): 3.13 µg/mL (≈ 2.84 µM)
- MIC (Staphylococcus aureus [1]): 3.13 µg/mL (≈ 2.84 µM)
- MIC (Bacillus subtilis): 6.25 µg/mL (≈ 5.66 µM)
- MIC (Escherichia coli [3]): 12.5 µg/mL (≈ 11.3 µM)
- MIC (Pseudomonas aeruginosa [4]): 12.5 µg/mL (≈ 11.3 µM)
Structure (SMILES): CC(C)C[C@@H]1NC(=O)[C@H](CCCN)NC(=O)[C@H](C(C)C)NC(=O)[C@@H]2CCCN2C(=O)[C@@H](CCCCN)NC(=O)[C@H](CC(C)C)NC(=O)[C@@H](CCCN)NC(=O)[C@H](C(C)C)NC(=O)[C@@H]2CCCN2C(=O)[C@@H](CCCCN)NC1=O
- HC50 at 0.5 h [2]: 150 to 200 µg/mL
